The values that follow come from patent US11358961B2, “Anti-HCMV compositions and methods” (Evrys Bio, LLC, priority 2014, dated 2022).

Where only a bound is given, the exact number is not on record here.

This experiment relates to human cytomegalovirus (HCMV). Put plainly: Antiviral activity against HCMV in vitro (virus yield / replication assay, IE protein readout). Conditions: Human betaherpesvirus 5, 96 h, read-out: HCMV IC50. The class given is cell-based. The method, then:
Assessing Antiviral Activity Against Human Cytomegalovirus (HCMV)
To assess their antiviral activity, some compounds were tested against human cytomegalovirus (HCMV) in vitro. Human MRCS cells were grown in Dulbecco's Modified Eagle Medium (DMEM) supplemented with 10% fetal bovine serum (FBS) and infected with an HCMV variant expressing GFP tagged pUL99 (the product of late viral UL99 gene) at a multiplicity of 1 infectious unit (IU) per cell. One hour later, medium of the cells was replaced with fresh medium containing the indicated compounds at 50, 25, 12.5, 6.25, 3.13, 1.56, 0.78, 0.39 μM or the carrier in which the compounds are dissolved (DMSO). Final concentration of DMSO was 0.5% in each treatment. Virus yield in the culture supernatant was determined at 96 hours after infection by infecting fresh MRCS cells and assaying viral IE1 protein expression. Results were plotted using either Prism Software or CDD Vault (CDD Vault was developed by Collaborative Drug Discovery, Inc., 1633 Bayshore Hwy, Suite 342, Burlingame, Calif. 94010) in order to calculate IC50s.
Alternatively, antiviral efficacy of some compounds was assessed by inhibition of HCMV replication during in vitro replication assays. Briefly, confluent monolayers of MRCS fibroblasts in a 96 well plate format (˜1.0×10^4 cells/well) were infected with an AD169 strain of HCMV for one hour. After the initial incubation hour, virus containing media was removed and 100 ul of media with sequential dilutions of FORGE compounds added to each well. The concentrations of the FORGE compounds were 50 μM, 25 μM, 12.5 μM, 6.25 μM, 3.125 μM, 1.56 μM, and 0.78125 μM as well as a vehicle control (0.5% DMSO). The concentration of DMSO was constant between all conditions. Assays were performed in duplicate. Infected plates were returned to the incubator and the viral infection was allowed to progress for four days. On the fourth day, 50 μL of cell free supernatant was collected from each well and used to infect a new 96 well plate seeded with a confluent monolayer of MRCS fibroblasts along with 50 μL of media to bring the total volume to 100 μL. The next day the media was removed and the infected monolayer was fixed with cold methanol, and Immediate Early proteins were detected by immunofluorescence assays to quantify the number of cells that were infected with HCMV. IE gene expression was quantified within five random fields within each well and corresponding numbers were utilized to determine viral replication. Results from each well were normalized to the vehicle control well so as to allow a percent reduction from no drug treatment to be calculated. Results were plotted using either Prism Software or CDD Vault in order to calculate IC50s.
Consider `c1cnn(-c2ccc(Cc3cnc(N4CCC5OCCCC5C4)s3)cc2)c1` (centres unmarked) [Example 25], for which the half-inhibitory concentration (IC50) was determined as 11 µM.
With `c1ccc2c(c1)CCCN2c1ncc(Cc2ccc(-n3cccn3)cc2)s1` [Example 23] the figure was > 50 µM; with `CC(c1cccc(-n2cccn2)c1)c1cnc(N2CCc3ccccc3C2)s1` (centres unmarked) [Example 18], 1.6 µM.
With `C=C(c1cccc(-n2cccn2)c1)c1cnc(N2CCc3ccccc3C2)s1` [Example 19], the half-inhibitory concentration (IC50) is 7 µM.
With `c1cc(Cc2cnc(N3CCc4ccccc4C3)s2)cc(-n2cccn2)c1` [Example 20], the IC50 came to 8.9 µM.
For `CC(C)c1ccc(CNc2ncc(Cc3ccc(-n4cccn4)cc3)s2)cc1` [Example 24], the IC50 is > 50 µM.
The figure for `CC(c1cnc(N2CCc3ccccc3C2)s1)c1c[nH]c2ccccc12` (centres unmarked) [Example 9] is 12.7 µM; for `c1cc(Cc2cnc(N3CCOCC3)s2)cc(-n2cccn2)c1` [Example 35] it is > 27 µM.
With `OC(c1ccc2nccnc2c1)c1cnc(N2CCc3ccccc3C2)s1` (centres unmarked) [Example 6] the figure was 5.1 µM; with `c1cnn(-c2ccc(Cc3cnc(N4CCOCC4)s3)cc2)c1` [Example 27], 10.3 µM; with `CC(C)OC1CN(c2ncc(Cc3ccc(-n4cccn4)cc3)s2)C1` [Example 22], > 50 µM.
The figure for `CC(c1ccc(N2CCCCC2)cc1)c1cnc(N2CCc3ccccc3C2)s1` (centres unmarked) [Example 15] is > 25 µM; for `O=C(c1ccc2nccnc2c1)c1cnc(N2CCc3ccccc3C2)s1` [Example 5] it is > 50 µM.
Take `N#Cc1ccc2c(c1)CN(c1ncc(Cc3ccc(-n4cccn4)cc3)s1)CC2` [Example 28]: the IC50 is 9.7 µM.
Turning to `C=C(c1ccc2nccnc2c1)c1cnc(NCc2ccccc2)s1` [Example 12], the IC50 is > 50 µM.
With `c1ccc2c(c1)CCN(c1ncc(Cc3ccc(-n4cccn4)cc3)s1)C2` [Example 16] the figure was 12.5 µM; with `CC(C)OC1CN(c2ncc(Cc3cccc(-n4cccn4)c3)s2)C1` [Example 30], 12 µM; with `C=C(c1ccc2nccnc2c1)c1cnc(N2CCc3ccccc3C2)s1` [Example 3], > 50 µM.
The figure for `CC(C)c1ccc(CNc2ncc(Cc3cccc(-n4cccn4)c3)s2)cc1` [Example 32] is > 50 µM; for `CC(c1cccc(-n2cccn2)c1)c1cnc(N2CCc3ccc(C#N)cc3C2)s1` (centres unmarked) [Example SBX082] it is 7.3 µM.
The figure for `c1cc(Cc2cnc(N3CCC4OCCCC4C3)s2)cc(-n2cccn2)c1` (centres unmarked) [Example 33] is 11.5 µM; for `CC(c1cccc(-n2cccn2)c1)c1cnc(N2CCc3ccc(C(N)=O)cc3C2)s1` (centres unmarked) [Example SBX088] it is 1.6 µM.
With `CC(c1ccc2nccnc2c1)c1cnc(N2CCC(c3ccccc3)C2)s1` (centres unmarked) [Example 10], the IC50 is > 25 µM.
With `CC(c1ccc(-c2ncccn2)cc1)c1cnc(N2CCc3ccccc3C2)s1` (centres unmarked) [Example 17] the figure was 4.2 µM; with `c1cc(Cc2cnc(N3CCCc4ccccc43)s2)cc(-n2cccn2)c1` [Example 31], > 50 µM.
With `C=C(c1ccc(-n2cccn2)cc1)c1cnc(N2CCc3ccccc3C2)s1` [Example 14] the figure was 28.7 µM; with `N#Cc1ccc2c(c1)CN(c1ncc(Cc3cccc(-n4cccn4)c3)s1)CC2` [Example 36], 3.3 µM; with `CC(O)(c1ccc2nccnc2c1)c1cnc(N2CCc3ccccc3C2)s1` (centres unmarked) [Example 2], 24 µM.
With `CC(c1ccc2nccnc2c1)c1cnc(N2CCC(Cc3ccccc3)CC2)s1` (centres unmarked) [Example 11] the figure was > 25 µM; with `COC(c1cccc(-n2cccn2)c1)c1cnc(N2CCc3ccc(C(N)=O)cc3C2)s1` (centres unmarked) [Example SBX087], 1.4 µM; with `CC(c1cccnc1)c1cnc(N2CCc3ccccc3C2)s1` (centres unmarked) [Example 8], 16.4 µM.
On to `c1ccc2c(c1)CCN(c1ncc(Cc3ccc4nccnc4c3)s1)C2` [Example 4], for which the IC50 amounted to 5.6 µM.
With `CC(c1ccc(-n2cccn2)cc1)c1cnc(N2CCc3ccccc3C2)s1` (centres unmarked) [Example 13] the figure was 3.6 µM; with `CC(c1ccccc1)c1cnc(N2CCc3ccccc3C2)s1` (centres unmarked) [Example 7], > 50 µM; with `CC(c1cccc(-n2cccn2)c1)c1cnc(N2CCc3ccc(Br)cc3C2)s1` (centres unmarked) [Example SBX084], 3.8 µM.
Turning to `CC(c1cccc(-n2ccnc2)c1)c1cnc(N2CCc3ccc(C#N)cc3C2)s1` (centres unmarked) [Example SBX080], the IC50 was found to be 4.9 µM.
With `CC(Nc1ncc(Cc2cccc(-n3cccn3)c2)s1)c1ccccc1` (centres unmarked) [Example 34] the figure was > 50 µM.
The figure for `c1ccc(CNc2ncc(Cc3cccc(-n4cccn4)c3)s2)cc1` [Example 29] is > 50 µM; for `CC(O)(c1ccc2nccnc2c1)c1cnc(-c2cnc(Cl)s2)s1` (centres unmarked) [Example 1] it is 21.4 µM; for `CC(Nc1ncc(Cc2ccc(-n3cccn3)cc2)s1)c1ccccc1` (centres unmarked) [Example 26] it is > 50 µM.
With `c1ccc(CNc2ncc(Cc3ccc(-n4cccn4)cc3)s2)cc1` [Example 21] the figure was > 50 µM.
